Measured values taken from PMC10409773, “Structure, catalysis, chitin transport, and selective inhibition of chitin synthase” (Nature Communications, 2023).

T1: Chs1 (chitin synthase 1) (Saccharomyces cerevisiae, UniProt P08004)
T1 construct: Chs1 (1131 residues) with C-terminal triple-FLAG; N-terminal ~374 residues largely disordered; homodimer
T1 sequence (P08004 1-1131): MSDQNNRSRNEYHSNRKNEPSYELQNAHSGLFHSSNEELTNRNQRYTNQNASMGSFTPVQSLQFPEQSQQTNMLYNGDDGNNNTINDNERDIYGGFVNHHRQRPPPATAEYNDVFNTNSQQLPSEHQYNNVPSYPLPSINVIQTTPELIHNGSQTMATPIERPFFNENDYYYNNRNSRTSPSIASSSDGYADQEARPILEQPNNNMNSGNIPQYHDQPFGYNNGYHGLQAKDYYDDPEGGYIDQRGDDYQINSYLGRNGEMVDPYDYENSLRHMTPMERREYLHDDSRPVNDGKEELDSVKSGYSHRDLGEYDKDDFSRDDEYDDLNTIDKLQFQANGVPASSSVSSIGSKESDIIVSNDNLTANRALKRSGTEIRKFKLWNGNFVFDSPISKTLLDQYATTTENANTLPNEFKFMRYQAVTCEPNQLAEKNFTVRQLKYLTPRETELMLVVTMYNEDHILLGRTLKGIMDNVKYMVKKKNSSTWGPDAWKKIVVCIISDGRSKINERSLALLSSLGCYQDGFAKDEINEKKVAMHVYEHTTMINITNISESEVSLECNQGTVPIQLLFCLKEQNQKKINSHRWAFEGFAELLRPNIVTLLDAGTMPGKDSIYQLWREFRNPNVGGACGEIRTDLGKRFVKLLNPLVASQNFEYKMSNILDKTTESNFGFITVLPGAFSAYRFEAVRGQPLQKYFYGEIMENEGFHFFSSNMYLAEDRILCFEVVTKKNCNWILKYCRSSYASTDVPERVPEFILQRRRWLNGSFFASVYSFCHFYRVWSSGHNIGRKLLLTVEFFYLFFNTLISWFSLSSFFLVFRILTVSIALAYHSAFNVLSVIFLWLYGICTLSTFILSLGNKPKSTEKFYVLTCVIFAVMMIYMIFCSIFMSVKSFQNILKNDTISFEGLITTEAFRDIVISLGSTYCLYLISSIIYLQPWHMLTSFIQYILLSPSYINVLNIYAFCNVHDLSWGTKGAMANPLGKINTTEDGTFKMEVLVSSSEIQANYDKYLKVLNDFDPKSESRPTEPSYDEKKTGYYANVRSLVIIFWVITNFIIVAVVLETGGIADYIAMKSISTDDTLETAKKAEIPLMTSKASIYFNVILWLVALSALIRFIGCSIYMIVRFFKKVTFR

B1: Saccharomyces cerevisiae chitin synthase 1 (Chs1), wild type, C-terminal triple FLAG (enzyme, S. cerevisiae)
chain: T1 sequence (P08004 1-1131)
notes: Chitin synthase 1 (Chs1), S. cerevisiae, UniProt P08004; the first 374 residues (except 245-271) are not seen in the maps; the purified sample was partly digested in the N-terminal region by endogenous protease (a smaller species lacks about the N-terminal 150 residues); also called ScChs1; scChs1

Experiments:
Chs1 (chitin synthase 1) = biological target: T1, Chs1 (chitin synthase 1); assay: cryo-EM structure at […] Å with UDP-GlcNAc (also with UDP, 8K3U); type: binding
[1] = biological target: the molecule itself; assay: cryo-EM structure; single-particle cryo-EM of purified Chs1 (~3 mg/mL) in LMNG/GDN/CHS, alone or with 5 mM UDP-GlcNAc, GlcNAc, UDP, Nikkomycin Z or Polyoxin B on ice; maps refined with C2 symmetry

| Molecule | cryo-EM structure at 2.9 Å with UDP-GlcNAc (also with UDP, 8K3U) (Chs1 (chitin synthase 1)) | stoichiometry N [1] |
| --- | --- | --- |
| CC(=O)N[C@H]1C(O)O[C@H](CO)[C@@H](O)[C@@H]1O (some centres unmarked) [GlcNAc] | The GlcNAc ring is vertically inserted into a slit between the indole ring of W760 and the pyrrolidine ring | – |
| B1 | – | 2 |
